In patent US11548888B2, “KRas G12C inhibitors” (Mirati Therapeutics, Inc., priority 2019, dated 2023):

What follows are molecules tested against T1, KRas G12C (Homo sapiens, UniProt P01116, G12C) (assay: Inhibition of KRas G12C-dependent cell growth: Phospho-ERK in NCI-H358 cells). Conditions: NCI-H358 cells expressing KRas G12C; Phospho-ERK (Thr202/Tyr204) normalized to GAPDH; 3 hours compound; 4 parameter fit.
T1 construct: NCI-H358 cells (ATCC CRL-5807) express KRas G12C
Type: cell-based
Method: The cellular inhibition of KRAs G12C by exemplary compounds of the present invention was determined by measuring the amount of a downstream marker of KRas activity, phosphorylated ERK (“Phospho-ERK”).
NCI-H358 cells (ATCC CRL-5807) express KRas G12C and were grown in RPMI medium supplemented with 10% fetal bovine serum, penicillin/streptomycin and 10 mM HEPES. Cells were plated in poly-D-Lysine coated 96-well plates at a concentration of 50,000 cells/well and allowed to attach for 8-12 hours. Diluted compounds were then added at a final concentration of 0.5% DMSO. After 3 hours, the medium was removed, 150 μL of 4% formaldehyde was added and the plates were incubated for 20 minutes. The plates were washed with PBS, and permeabilized using 150 μL of ice cold 100% methanol for 10 minutes. Non-specific antibody binding to the plates was blocked using 100 μL Licor Blocking Buffer (Li-Cor Biotechnology, Lincoln Nebr.) for 1 hour at room temperature. Positive control samples and samples lacking cells were parallel processed with test samples as standards.
The amount Phospho-ERK was determined using an antibody specific for the phosphorylated form of ERK and compared to the amount of GAPDH. Primary antibodies used for detection were added as follows: Phospho-ERK (Cell Signaling cs9101) diluted 1:500 and GAPDH (Millipore MAB374) diluted 1:5000 in Licor block+0.05% Tween 20. The plates were incubated for 2 hours at room temperature. The plates were washed with PBS+0.05% Tween 20.
Secondary antibodies used to visualize primary antibodies were added as follows: Anti-rabbit-680 diluted 1:1000 and Anti-mouse-800 diluted 1:1000 in Licor Block+0.05% Tween 20 and incubated for 1 hour at room temperature. The plates were washed with PBS+0.05% Tween 20. A 100 μL aliquot of PBS was added to each well and the plates were read on a LICOR AERIUS plate reader.
The pERK(Thr202/Tyr204) signal was normalized with the GAPDH signal and percent of DMSO control values were calculated. IC50 values were generated using a 4 parameter fit of the dose response curve.

T1 sequence (P01116 1-188 isoform P01116-2 G12C): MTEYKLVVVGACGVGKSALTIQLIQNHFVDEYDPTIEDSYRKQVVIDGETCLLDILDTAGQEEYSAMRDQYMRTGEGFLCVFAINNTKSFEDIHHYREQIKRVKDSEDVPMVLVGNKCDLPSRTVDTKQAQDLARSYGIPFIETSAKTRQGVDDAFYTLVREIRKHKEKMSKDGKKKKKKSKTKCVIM

Row | IC50 [nM] | Compound
1 | 38 | C=C(F)C(=O)N1CCN(c2nc(OC[C@@H]3C[C@@H](OC)CN3C)nc3c(F)c(-c4cccc5cccc(Cl)c45)ncc23)C[C@@H]1CC#N [Example 22, 2-[(2S)-4-[7-(8-chloro-1-naphthyl)-8-fluoro-2-[[(2S,4R)-4-methoxy-1-methyl-pyrrolidin-2-yl]methoxy]pyrido[4,3-d]pyrimidin-4-yl]-1-(2-fluoroprop-2-enoyl)piperazin-2-yl]acetonitrile]
2 | 18 | CN1CCC[C@H]1COc1nc(N2CCN(C(=O)/C=C/CF)[C@@H](CC#N)C2)c2cnc(-c3cccc4cccc(Cl)c34)c(F)c2n1 [Example 23, 2-((S)-4-(7-(8-chloronaphthalen-1-yl)-8-fluoro-2-(((S)-1-methylpyrrolidin-2-yl)methoxy)pyrido[4,3-d]pyrimidin-4-yl)-1-((E)-4-fluorobut-2-enoyl)piperazin-2-yl)acetonitrile]
3 | 109 | Cc1cccc2cccc(-c3ncc4c(N5CCN(C(=O)/C=C/CF)[C@@H](CC#N)C5)nc(OC[C@@H]5CC(F)(F)CN5C)nc4c3F)c12 [Example 24, 2-((S)-4-(2-(((S)-4,4-difluoro-1-methylpyrrolidin-2-yl)methoxy)-8-fluoro-7-(8-methylnaphthalen-1-yl)pyrido[4,3-d]pyrimidin-4-yl)-1-((E)-4-fluorobut-2-enoyl)piperazin-2-yl)acetonitrile]
4 | 13 | CN1CC(F)(F)C[C@H]1COc1nc(N2CCN(C(=O)/C=C/CF)[C@@H](CC#N)C2)c2cnc(-c3cccc4cccc(Cl)c34)c(F)c2n1 [Example 25, 2-((S)-4-(7-(8-chloronaphthalen-1-yl)-2-(((S)-4,4-difluoro-1-methylpyrrolidin-2-yl)methoxy)-8-fluoropyrido[4,3-d]pyrimidin-4-yl)-1-((E)-4-fluorobut-2-enoyl)piperazin-2-yl)acetonitrile]
5 | 55 | CO[C@@H]1C[C@@H](COc2nc(N3CCN(C(=O)/C=C/CF)[C@@H](CC#N)C3)c3cnc(-c4cccc5cccc(C)c45)c(F)c3n2)N(C)C1 [Example 26, 2-[(2S)-1-[(E)-4-fluorobut-2-enoyl]-4-[8-fluoro-2-[[(2S,4R)-4-methoxy-1-methyl-pyrrolidin-2-yl]methoxy]-7-(8-methyl-1-naphthyl)pyrido[4,3-d]pyrimidin-4-yl]piperazin-2-yl]acetonitrile]
6 | 30 | CO[C@@H]1C[C@@H](COc2nc(N3CCN(C(=O)/C=C/CF)[C@@H](CC#N)C3)c3cnc(-c4cccc5cccc(Cl)c45)c(F)c3n2)N(C)C1 [Example 27, 2-[(2S)-4-[7-(8-chloro-1-naphthyl)-8-fluoro-2-[[(2S,4R)-4-methoxy-1-methyl-pyrrolidin-2-yl]methoxy]pyrido[4,3-d]pyrimidin-4-yl]-1-[(E)-4-fluorobut-2-enoyl]piperazin-2-yl]acetonitrile]
7 | 260 | C=C(F)C(=O)N1CCN(c2nc(OCCCN3C[C@@H]4C[C@H]3CO4)nc3c(F)c(-c4cccc5cccc(C)c45)ncc23)C[C@@H]1CC#N [Example 28, 2-[(2S)-4-[8-fluoro-7-(8-methyl-1-naphthyl)-2-[3-[(1S,4S)-2-oxa-5-azabicyclo[2.2.1]heptan-5-yl]propoxy]pyrido[4,3-d]pyrimidin-4-yl]-1-(2-fluoroprop-2-enoyl)piperazin-2-yl]acetonitrile]
8 | 85 | C=C(F)C(=O)N1CCN(c2nc(OCCCN3C[C@@H]4C[C@H]3CO4)nc3c(F)c(-c4cccc5cccc(Cl)c45)ncc23)C[C@@H]1CC#N [Example 29, 2-[(2S)-4-[7-(8-chloro-1-naphthyl)-8-fluoro-2-[3-[(1S,4S)-2-oxa-5-azabicyclo[2.2.1]heptan-5-yl]propoxy]pyrido[4,3-d]pyrimidin-4-yl]-1-(2-fluoroprop-2-enoyl)piperazin-2-yl]acetonitrile]
9 | 131 | Cc1cccc2cccc(-c3ncc4c(N5CCN(C(=O)/C=C/CF)[C@@H](CC#N)C5)nc(OCCCN5C[C@@H]6C[C@H]5CO6)nc4c3F)c12 [Example 30, 2-[(2S)-1-[(E)-4-fluorobut-2-enoyl]-4-[8-fluoro-7-(8-methyl-1-naphthyl)-2-[3-[(1S,4S)-2-oxa-5-azabicyclo[2.2.1]heptan-5-yl]propoxy]pyrido[4,3-d]pyrimidin-4-yl]piperazin-2-yl]acetonitrile]
10 | 33 | N#CC[C@H]1CN(c2nc(OCCCN3C[C@@H]4C[C@H]3CO4)nc3c(F)c(-c4cccc5cccc(Cl)c45)ncc23)CCN1C(=O)/C=C/CF [Example 31, 2-[(2S)-4-[7-(8-chloro-1-naphthyl)-8-fluoro-2-[3-[(1S,4S)-2-oxa-5-azabicyclo[2.2.1]heptan-5-yl]propoxy]pyrido[4,3-d]pyrimidin-4-yl]-1-[(E)-4-fluorobut-2-enoyl]piperazin-2-yl]acetonitrile]
11 | 137 | C=C(F)C(=O)N1CCN(c2nc(OC[C@@H]3CCCN3C)nc3c(Cl)c(-c4cccc5cccc(C)c45)ncc23)C[C@@H]1CC#N [Example 32, 2-[(2S)-4-[8-chloro-7-(8-methyl-1-naphthyl)-2-[[(2S)-1-methylpyrrolidin-2-yl]methoxy]pyrido[4,3-d]pyrimidin-4-yl]-1-(2-fluoroprop-2-enoyl)piperazin-2-yl]acetonitrile]
12 | 79 | C=C(F)C(=O)N1CCN(c2nc(OC[C@@H]3CCCN3C)nc3c(C)c(-c4cccc5cccc(C)c45)ncc23)C[C@@H]1CC#N [Example 33, 2-[(2S)-1-(2-fluoroprop-2-enoyl)-4-[8-methyl-7-(8-methyl-1-naphthyl)-2-[[(2S)-1-methylpyrrolidin-2-yl]methoxy]pyrido[4,3-d]pyrimidin-4-yl]piperazin-2-yl]acetonitrile]
13 | 45 | C=C(F)C(=O)N1CCN(c2nc(OC[C@@H]3C[C@@H](OC)CN3C)nc3c(F)c(-c4cncc5cccc(C)c45)ncc23)C[C@@H]1CC#N [Example 34, 2-[(2S)-4-[8-fluoro-2-[[(2S,4R)-4-methoxy-1-methyl-pyrrolidin-2-yl]methoxy]-7-(5-methyl-4-isoquinolyl)pyrido[4,3-d]pyrimidin-4-yl]-1-(2-fluoroprop-2-enoyl)piperazin-2-yl]acetonitrile]
14 | 27 | C=C(F)C(=O)N1CCN(c2nc(OC[C@H]3CCCN3C)nc3c(F)c(-c4cccc5cccc(Cl)c45)ncc23)C[C@@H]1CC#N [Example 35, 2-[(2S)-4-[7-(8-chloro-1-naphthyl)-8-fluoro-2-[[(2R)-1-methylpyrrolidin-2-yl]methoxy]pyrido[4,3-d]pyrimidin-4-yl]-1-(2-fluoroprop-2-enoyl)piperazin-2-yl]acetonitrile]
15 | 44 | CO[C@@H]1C[C@@H](COc2nc(N3CCN(C(=O)/C=C/CF)[C@@H](CC#N)C3)c3cnc(-c4cncc5cccc(C)c45)c(F)c3n2)N(C)C1 [Example 36, 2-[(2S)-1-[(E)-4-fluorobut-2-enoyl]-4-[8-fluoro-2-[[(2S,4R)-4-methoxy-1-methyl-pyrrolidin-2-yl]methoxy]-7-(5-methyl-4-isoquinolyl)pyrido[4,3-d]pyrimidin-4-yl]piperazin-2-yl]acetonitrile]
16 | 168 | C=C(F)C(=O)N1CCN(c2nc(OCCCN3C[C@@H]4C[C@H]3CO4)nc3c(F)c(-c4cncc5cccc(Cl)c45)ncc23)C[C@@H]1CC#N [Example 37, 2-[(2S)-4-[7-(5-chloro-4-isoquinolyl)-8-fluoro-2-[3-[(1S,4S)-2-oxa-5-azabicyclo[2.2.1]heptan-5-yl]propoxy]pyrido[4,3-d]pyrimidin-4-yl]-1-(2-fluoroprop-2-enoyl)piperazin-2-yl]acetonitrile]
17 | 338 | C=C(F)C(=O)N1CCN(c2nc(OCCCN3C[C@@H]4C[C@H]3CO4)nc3c(F)c(-c4cncc5cccc(C)c45)ncc23)C[C@@H]1CC#N [Example 38, 2-[(2S)-4-[8-fluoro-7-(5-methyl-4-isoquinolyl)-2-[3-[(1S,4S)-2-oxa-5-azabicyclo[2.2.1]heptan-5-yl]propoxy]pyrido[4,3-d]pyrimidin-4-yl]-1-(2-fluoroprop-2-enoyl)piperazin-2-yl]acetonitrile]
18 | 544 | Cc1cccc2cncc(-c3ncc4c(N5CCN(C(=O)/C=C/CF)[C@@H](CC#N)C5)nc(OCCCN5C[C@@H]6C[C@H]5CO6)nc4c3F)c12 [Example 39, 2-[(2S)-1-[(E)-4-fluorobut-2-enoyl]-4-[8-fluoro-7-(5-methyl-4-isoquinolyl)-2-[3-[(1S,4S)-2-oxa-5-azabicyclo[2.2.1]heptan-5-yl]propoxy]pyrido[4,3-d]pyrimidin-4-yl]piperazin-2-yl]acetonitrile]
19 | 496 | C=CC(=O)N1CCN(c2ncnc3cc(-c4cccc5cccc(C)c45)ncc23)C[C@@H]1CC#N [Example 40, (S)-2-(1-acryloyl-4-(7-(8-methylnaphthalen-1-yl)pyrido[4,3-d]pyrimidin-4-yl)piperazin-2-yl)acetonitrile]
